According to US7232837B2, “Stereoisomers with high affinity for adrenergic receptors” (McNeil-PPC, Inc., priority 1999, dated 2007):

Assays:
Swiss-Webster mice [1] = test: H1 receptor antagonist (triprolidine) interaction study, locomotor activity in mice; settings: mice pretreated with triprolidine 20 min before the test compound
Method: H1 receptor antagonist interaction studies. […] The mice were immediately placed in the activity testing chamber for a 2-h session. Doses of the test compound were selected from the ascending or descending time of the dose-effect curve determined from the compound-alone studies. Eight mice were tested for each triprolidine/test compound combination.
Statistical analysis. Time course data for each compound were considered in 2-way analyses of variance with dose as a between-group and time as a within-group factor. The dose-effect data were considered in 1-way analyses of variance, and planned individual comparisons were conduced between each dose and the saline control group. Interaction studies were considered in 2-way analyses of variance, with Pretreatment and Test dose as the factors.

[2] = system: New Zealand white rabbits; test: Intraocular pressure (IOP) after topical application to the rabbit eye; format: in vivo; settings: for IOP: mean ± S.E.
Method: (§1) These diastereomers were administered topically as either 1% or 2% solutions in buffered saline. Pupillary diameter and IOP were measured in all animals over a six hour time period during the day to minimize diurnal variations in IOP and pupil diameter.
(§2) The experiments were performed on adult male New Zealand white rabbits weighing 3.0–6.0 kg. All rabbits were caged individually and maintained on a 12 hr/12 hr light/dark schedule with free access to food and water. All animal procedures were in conformity with the ARVO Resolution on the Use and Care of Animals in Research. All treated rabbits had served as controls by having received a saline treatment on a different day.
(§3) Only one eye received drug treatment. The contralateral eye served as a control. Saline (or PBS) and drug treated rabbits were treated and observed simultaneously. A single dose was given at time zero and IOP and pupil diameter measured at −1.0, −0.5, 0.5, 1, 3 and 5 hrs post-treatment.
IOP measurements were recorded with an Alcon Applanation Pneumotonograph (Surgical Products Division, Alcon Laboratories, Inc., Ft. Worth, Tex.) in rabbits placed in Lucite restraining cages. Initial topical application of a two drop 0.5% proparacaine HCl (Ophthetic®, Allergan Pharmaceuticals, Inc.) was performed on each rabbit.
(§4) Mean and Standard Error values were used to construct time-response and dose-response curves for the treated and contralateral eye of research rabbits. The data were analyzed statistically by an analysis of variance and a Bonferoni's test for significance. P<0.05 was the accepted level of significance.

[3] = system: New Zealand white rabbits; test: Pupil diameter / mydriasis after topical application to the rabbit eye; format: in vivo; settings: for Pupil Diameter: mean ± S.E.
Method: as §1, §2, §3
Pupil diameter was measured visually at the point of the greatest horizontal diameter with a transparent millimeter ruler. All measurements were made under the identical ambient lighting conditions.
as §4

Swiss-Webster mice [4] = test: Locomotor stimulant and depressant effects in mice; settings: i.p.
[5] = 1% topical, drug treated eye (T), 0.5 hr
[6] = 1% topical, drug treated eye (T), 1 hr
[7] = 1% topical, drug treated eye (T), 3 hr
[8] = 1% topical, drug treated eye (T), 5 hr
[9] = 1% topical, drug treated eye (T), −0.5 hr (pre-treatment)
[10] = 1% topical, drug treated eye (T), −1 hr (pre-treatment)
[11] = 1% topical, untreated contralateral eye (U), 0.5 hr
[12] = 1% topical, untreated contralateral eye (U), 1 hr
[13] = 1% topical, untreated contralateral eye (U), 3 hr
[14] = 1% topical, untreated contralateral eye (U), 5 hr
[15] = 1% topical, untreated contralateral eye (U), −0.5 hr (pre-treatment)
[16] = 1% topical, untreated contralateral eye (U), −1 hr (pre-treatment)
[17] = 2% topical, drug treated eye (T), 0.5 hr
[18] = 2% topical, drug treated eye (T), 1 hr
[19] = 2% topical, drug treated eye (T), 3 hr
[20] = 2% topical, drug treated eye (T), 5 hr
[21] = 2% topical, drug treated eye (T), −0.5 hr (pre-treatment)
[22] = 2% topical, drug treated eye (T), −1 hr (pre-treatment)
[23] = 2% topical, untreated contralateral eye (U), 0.5 hr
[24] = 2% topical, untreated contralateral eye (U), 1 hr
[25] = 2% topical, untreated contralateral eye (U), 3 hr
[26] = 2% topical, untreated contralateral eye (U), 5 hr
[27] = 2% topical, untreated contralateral eye (U), −0.5 hr (pre-treatment)
[28] = 2% topical, untreated contralateral eye (U), −1 hr (pre-treatment)
[29] = — denotes absence of significant effect

`CNC[C@@H](O)c1cccc(O)c1` [(+)-Phenylephrine, (+)-phenylephrine] was tested, and the “effect of triprolidine pretreatment on stimulant or depressant effects” value (Swiss-Webster mice [1]) was “failed to show significant modification of stimulant or depressant effects”, the IOP [2, 5] was 16 ± 1.5 mmHg and the IOP [2, 6] was 16 ± 0.7 mmHg. It also gave an IOP [2, 7] of 15 ± 0.5 mmHg, an IOP [2, 8] of 16 ± 1.0 mmHg and an IOP [2, 9] of 18 ± 2.1 mmHg. The IOP [2, 10] was 19 ± 1.8 mmHg, the IOP [2, 11] was 19 ± 1.8 mmHg and the IOP [2, 12] was 17 ± 1.1 mmHg. The IOP [2, 13] was 16 ± 1.0 mmHg, the IOP [2, 14] was 17 ± 1.7 mmHg and the IOP [2, 15] was 19 ± 2.0 mmHg. The IOP [2, 16] was 21 ± 2.0 mmHg, the IOP [2, 17] was 20 ± 1.7 mmHg and the IOP [2, 18] was 19 ± 1.8 mmHg. It also gave an IOP [2, 19] of 19 ± 2.2 mmHg, an IOP [2, 20] of 16 ± 2.4 mmHg and an IOP [2, 21] of 19 ± 0.8 mmHg. It also gave an IOP [2, 22] of 19 ± 0.9 mmHg, an IOP [2, 23] of 21 ± 1.7 mmHg and an IOP [2, 24] of 22 ± 2.2 mmHg. The IOP [2, 25] was 20 ± 1.8 mmHg, the IOP [2, 26] was 18 ± 1.9 mmHg and the IOP [2, 27] was 19 ± 2.2 mmHg. The IOP [2, 28] was 19 ± 1.6 mmHg, the “Pupil Diameter” value [3, 5] was 6 ± 0.2 mm and the “Pupil Diameter” value [3, 6] was 9 ± 0.2 mm. The “Pupil Diameter” value [3, 7] was 9 ± 0.2 mm, the “Pupil Diameter” value [3, 8] was 9 ± 0.2 mm and the “Pupil Diameter” value [3, 9] was 5 ± 0.2 mm. The “Pupil Diameter” value [3, 10] was 5 ± 0.2 mm, the “Pupil Diameter” value [3, 11] was 6 ± 0.2 mm and the “Pupil Diameter” value [3, 12] was 9 ± 0.2 mm. For the same molecule, the “Pupil Diameter” value [3, 13] was 9 ± 0.2 mm, the “Pupil Diameter” value [3, 14] was 9 ± 0.2 mm and the “Pupil Diameter” value [3, 15] was 5 ± 0.2 mm. The “Pupil Diameter” value [3, 16] was 5 ± 0.2 mm, the “Pupil Diameter” value [3, 17] was 6 ± 0.2 mm and the “Pupil Diameter” value [3, 18] was 9 ± 0.2 mm. The “Pupil Diameter” value [3, 19] was 9 ± 0.2 mm, the “Pupil Diameter” value [3, 20] was 9 ± 0.2 mm and the “Pupil Diameter” value [3, 21] was 5 ± 0.2 mm. For the same molecule, the “Pupil Diameter” value [3, 22] was 5 ± 0.2 mm, the “Pupil Diameter” value [3, 23] was 6 ± 0.2 mm and the “Pupil Diameter” value [3, 24] was 9 ± 0.2 mm. For the same molecule, the “Pupil Diameter” value [3, 25] was 9 ± 0.2 mm, the “Pupil Diameter” value [3, 26] was 9 ± 0.2 mm and the “Pupil Diameter” value [3, 27] was 5 ± 0.2 mm. For the same molecule, the “Pupil Diameter” value [3, 28] was 5 ± 0.2 mm, the “Depression Time: 30-min period following injection in which the maximal depression occurred” value (Swiss-Webster mice [4]) was 0 to 30 min and the “Stimulation Time: 30-min period following injection in which the maximal stimulant effect occurred” value (Swiss-Webster mice [4]) was 60 to 90 min. The “locomotor depressant effects, time course (result in words)” value (Swiss-Webster mice [4]) was “dose-dependent locomotor depression within 10 to 20 minutes following injection” and the “Depression Potency: dose resulting in ½ the maximal depressant effect (ID50)” value (Swiss-Webster mice [4]; [29]) was 53.3 mg/kg.
For (+)-norpseudoephedrine, the “effect of triprolidine pretreatment on stimulant or depressant effects” value (Swiss-Webster mice [1]) was “failed to show significant modification of stimulant or depressant effects”, the “effect on IOP (result in words)” value ([2]; 1% or 2% topical, rabbit) was “accompanying increase in IOP” and the IOP [2, 5] was 19 ± 2.4 mmHg. For the same molecule, the IOP [2, 6] was 18 ± 1.8 mmHg, the IOP [2, 7] was 18 ± 2.0 mmHg and the IOP [2, 8] was 17 ± 2.8 mmHg. For the same molecule, the IOP [2, 10] was 18 ± 1.0 mmHg, the IOP [2, 11] was 24 ± 1.8 mmHg and the IOP [2, 12] was 19 ± 1.8 mmHg. For the same molecule, the IOP [2, 13] was 18 ± 2.8 mmHg, the IOP [2, 14] was 17 ± 2.8 mmHg and the IOP [2, 16] was 20 ± 1.7 mmHg. The IOP [2, 17] was 18 ± 2.5 mmHg, the IOP [2, 18] was 20 ± 2.3 mmHg and the IOP [2, 19] was 20 ± 2.0 mmHg. The IOP [2, 20] was 21 ± 2.8 mmHg, the IOP [2, 21] was 16 ± 2.5 mmHg and the IOP [2, 22] was 19 ± 2.4 mmHg. It also gave an IOP [2, 23] of 22 ± 2.0 mmHg, an IOP [2, 24] of 23 ± 2.1 mmHg and an IOP [2, 25] of 22 ± 2.7 mmHg. For the same molecule, the IOP [2, 26] was 24 ± 2.3 mmHg, the IOP [2, 27] was 19 ± 2.5 mmHg and the IOP [2, 28] was 18 ± 2.6 mmHg. For the same molecule, the “mydriasis / pupil diameter (result in words)” value ([3]; 1% or 2% topical, rabbit) was “significant mydriasis”, the “Mydriatic Responses, TREATED EYE” value ([3]; 1% topical) was “++ (++ = 2–4 mm change)” and the “Mydriatic Responses, UNTREATED EYE” value ([3]; 1% topical) was “+ (+ = 0–2 mm change)”. For the same molecule, the “Pupil Diameter” value [3, 5] was 8 ± 0.2 mm, the “Pupil Diameter” value [3, 6] was 8 ± 0.2 mm and the “Pupil Diameter” value [3, 7] was 8 ± 0.2 mm. The “Pupil Diameter” value [3, 8] was 8 ± 0.2 mm, the “Pupil Diameter” value [3, 9] was 6 ± 0.2 mm and the “Pupil Diameter” value [3, 10] was 6 ± 0.2 mm. The “Pupil Diameter” value [3, 11] was 8 ± 0.2 mm, the “Pupil Diameter” value [3, 12] was 8 ± 0.2 mm and the “Pupil Diameter” value [3, 13] was 8 ± 0.2 mm. The “Pupil Diameter” value [3, 14] was 8 ± 0.2 mm, the “Pupil Diameter” value [3, 15] was 6 ± 0.2 mm and the “Pupil Diameter” value [3, 16] was 6 ± 0.2 mm. The “Mydriatic Responses, TREATED EYE” value ([3]; 2% topical) was “++ (++ = 2–4 mm change)”, the “Mydriatic Responses, UNTREATED EYE” value ([3]; 2% topical) was “++ (++ = 2–4 mm change)” and the “Pupil Diameter” value [3, 17] was 9 ± 0.2 mm. The “Pupil Diameter” value [3, 18] was 9 ± 0.2 mm, the “Pupil Diameter” value [3, 19] was 9 ± 0.2 mm and the “Pupil Diameter” value [3, 20] was 9 ± 0.2 mm. For the same molecule, the “Pupil Diameter” value [3, 21] was 6 ± 0.2 mm, the “Pupil Diameter” value [3, 22] was 6 ± 0.2 mm and the “Pupil Diameter” value [3, 23] was 9 ± 0.2 mm. For the same molecule, the “Pupil Diameter” value [3, 24] was 9 ± 0.2 mm, the “Pupil Diameter” value [3, 25] was 9 ± 0.2 mm and the “Pupil Diameter” value [3, 26] was 9 ± 0.2 mm. The “Pupil Diameter” value [3, 27] was 6 ± 0.2 mm, the “Pupil Diameter” value [3, 28] was 6 ± 0.2 mm and the “Depression Time: 30-min period following injection in which the maximal depression occurred” value (Swiss-Webster mice [4]) was 10 to 40 min. The “Stimulation Time: 30-min period following injection in which the maximal stimulant effect occurred” value (Swiss-Webster mice [4]) was 30 to 60 min and the “Stimulation Potency: dose resulting in ½ the maximal stimulant effect (ID50)” value (Swiss-Webster mice [4]; [29]) was 12.2 mg/kg.
